Patent publication US6486199B1, “Spiro and dispiro 1,2,4-trioxolane antimalarials” (Medicines for Malaria Venture MMV International Centre …, priority 2001, dated 2002)
pIC50: −log10 of the molar value. Converted amounts (≈) assume the structure as drawn. “And” between values parts separate entries of the source, which are not always exact repeats. Equal entries are not always repeated. Where two headings read alike, the source gives them in different places. Marks after values point to notes of the source that are not given here.

Key:
[1] = system: 21-day-old schistosomules of Schistosoma mansoni; assay: effect on 21-day-old schistosomules in mice; format: in vivo; conditions: single 200 mg/kg per os; for FWR (%): female worm reduction rate; for Mean female worm burden: mean ± standard deviation; for TWR (%): total worm reduction rate
Description: […] Each group was treated per os with OZ compounds at a single dose of 200 mg/kg. Untreated mice served as the control. All groups were killed 4 weeks after treatment and the liver and intestine were removed and separated. The liver and intestine were compressed and alive male and female worms could be seen and counted. The effect of the compounds was evaluated by mean total and female worm burden.

P. berghei [2] = assay: 4-day Peters test against P. berghei in vivo; conditions: 4 day; for ED50: Plasmodium berghei, 96 h
parasitemia = assay: onset of drug action and recrudescence after single oral dose; format: in vivo; conditions: for duration of action compared with artemether: single 100 mg/kg po; for Recrudescence (>5% parasitemia) occurs on day: single 100 mg/kg po on day +3 post-infection
Description: The reduction of parasitemia was monitored 12 h after treatment, and the time of recrudescence was assessed by daily blood smears for 14 days, followed by intermittent assessment for up to 30 days.

adult S. mansoni = assay: activity against adult S. mansoni, treated once at day 49 of infection; format: in vivo; conditions: OZ05 200 mg/kg p.o., OZ11 100 mg/kg p.o.
P. berghei [3] = assay: 1-day Peters test against P. berghei in vivo; conditions: for ED50 / ED90: Plasmodium berghei, 24 h; for P. berghei (1 day) ED50 po / P. berghei (1 day) ED90 po / P. berghei (1 day) ED90 sc / ED50 / ED90 / P. berghei (1 day) ED50 sc: 1 day; for ED90: read-out: P. berghei (1 day) ED90 po
[4] = system: adult schistosomes (49-day-old) of Schistosoma mansoni; assay: effect on adult schistosomes (49-day-old) in mice; format: in vivo; conditions: single 400 mg/kg per os; for TWR (%): total worm reduction rate; for Mean total worm burden: x ± SD
Description: Mice were infected with 100 Schistosoma mansoni cercariae […]. Each group was treated per os with OZ compounds at a single dose of 400 mg/kg. Untreated mice served as the control. All groups were killed 4 weeks after treatment and the liver and intestine were removed and separated. The liver and intestine were compressed and alive male and female worms could be seen and counted.

[5] = differential scanning calorimetry (DSC), thermal stability; format: physicochemical; conditions: thermal decomposition
Schistosoma mansoni = assay: treatment of mice infected with Schistosoma mansoni cercaria, six weekly oral doses; format: in vivo; conditions: for activity in the same assay: artemether at doses four times higher than OZ05, arteflene 6×600 mg/kg p.o., fenozan 6×100 mg/kg p.o.
Text: Mice (MORO SPF female 18-20g) were infected with 90 (±10) cecaria of Schistosoma mansoni subcutaneously.

[6] = system: chloroquine-resistant K1 strain of P. falciparum; assay: in vitro screen against chloroquine-resistant K1 strain of P. falciparum; format: cell-based; conditions: for IC50: Plasmodium falciparum
NB2a cell line = assay: neurotoxicity against the NB2a cell line; format: cell-based
[7] = system: chloroquine-sensitive NF54 strain of P. falciparum; assay: in vitro screen against chloroquine-sensitive NF54 strain of P. falciparum; format: cell-based; conditions: for IC50: Plasmodium falciparum
[8] = system: ANKA strain of P. Berghei; assay: single dose STI in vivo screen in infected Moro SPF mice; conditions: for inhibition in vivo at 10 mg/kg / inhibition in vivo at 100 mg/kg: Plasmodium berghei, 72 h; for inhibition in vivo at 10 mg/kg / inhibition in vivo at 100 mg/kg / Activity (%) po / Activity (%) sc: percent reduction in parasitemia day 3 post-infection; for antimalarial activity, overall assessment: overall judgement of in vitro and in vivo data of Table 2
[9] = in vitro, K1 strain, read-out: IC50 (ng/ml) K1
[10] = po, read-out: P. berghei (1 day) ED50 po
[11] = in vitro, NF54 strain, read-out: IC50 (ng/ml) NF54
[12] = single 10 mg/kg po, read-out: Activity (%) po
[13] = sc, read-out: P. berghei (1 day) ED50 sc
[14] = single 100 mg/kg po, survival to day 30 = cure
[15] = single 100 mg/kg sc, survival to day 30 = cure

| Compound | FWR (%) [1] | Mean female worm burden [1] | TWR (%) [1] | P. berghei (4 day) ED50 po (P. berghei [2]; po) | P. berghei (4 day) ED90 po (P. berghei [2]; po) | P. berghei (4 day) ED50 sc (P. berghei [2]; sc) | P. berghei (4 day) ED90 sc (P. berghei [2]; sc) | duration of action compared with artemether (parasitemia) | Recrudescence (>5% parasitemia) occurs on day (parasitemia) | activity against adult S. mansoni (adult S. mansoni) | P. berghei (1 day) ED50 po (P. berghei [3]; po) | P. berghei (1 day) ED90 po (P. berghei [3]; po) | P. berghei (1 day) ED90 sc (P. berghei [3]; sc) | TWR (%) [4] | Survival (days) po ([8]; single 10 mg/kg po) | Survival (days) po [8, 14] | Survival (days) sc [8, 15] | antimalarial activity, overall assessment [8] | Activity (%) po ([8]; single 100 mg/kg po) | Activity (%) sc ([8]; single 100 mg/kg sc) | further results |
| --- | --- | --- | --- | --- | --- | --- | --- | --- | --- | --- | --- | --- | --- | --- | --- | --- | --- | --- | --- | --- | --- |
| CC1(C)COC2(CCC3(CC2)OOC2(O3)C3CC4CC(C3)CC2C4)OC1 (stereo not shown) [OZ11, Adamantane-2-spiro-3′-11′,11′-dimethyl-1′,2′,4′,9′,13′-pentaoxadispiro[4.2.5.2]pentadecane] | 84% | 2.0 ± 1.9^b | 85% | 1.8 mg/kg | 3.1 mg/kg | 0.5 mg/kg | 0.9 mg/kg | longer | 10 days | showed activity | 1.5 mg/kg | 2.8 mg/kg | NA/0.87 mg/kg | 16.2% |  |  |  |  |  |  | Percentage of dead worm [4]: 3.9 (6/156); Total dead worm [4]: 6; Mean total worm burden [4]: 30.0 ± 1.9^a; Tm dec. (° C.) [5]: 162.4 °C |
| C[C@@H]1C(=O)C[C@H]2C[C@@H]1OO[C@@]2(C)/C=C\c1ccc(C(F)(F)F)cc1C(F)(F)F [arteflene, reference compound] |  |  |  |  |  |  |  |  |  |  |  |  |  |  |  |  |  |  |  |  | activity in the same assay (Schistosoma mansoni): inactive |
| C[C@H]1[C@@H](O)O[C@@H]2O[C@@]3(C)CC[C@H]4[C@H](C)CC[C@@H]1[C@@]24OO3 [Dihydroart, dihydroartemisinin, reference compound] |  |  |  |  |  |  |  |  |  |  |  |  |  |  | 6.8/NA days |  |  |  |  |  | IC50 [6, 9]: 0.22 ng/mL (≈ 0.774 nM); pIC50 (NB2a cell line): 6.66; ED50 (P. berghei [3]; [10]): 2.9 mg/kg; ED90 (P. berghei [3]; po): 12 mg/kg; IC50 [7, 11]: 0.23 ng/mL (≈ 0.809 nM); inhibition in vivo at 10 mg/kg [8, 12]: 80% |
| CO[C@H]1O[C@@H]2O[C@@]3(C)CC[C@H]4[C@H](C)CC[C@@H]([C@H]1C)[C@@]24OO3 [Artemether, artemether, reference compound] |  |  | 82.2% |  |  |  |  |  |  | no activity |  |  | 2.3 mg/kg | 31.0% | 8.0 days | 14.7/14.7 days | 14.7/14.7 days |  |  |  | IC50 ([6]; K1, read-out: IC50 (ng/ml) K1): 0.5 ng/mL (≈ 1.68 nM); ED50 (P. berghei [3]; [10]): 2 mg/kg; ED90 (P. berghei [3]; po): 4.3 mg/kg; ED50 (P. berghei [3]; [13]): 2.1 mg/kg; IC50 ([7]; NF54, read-out: IC50 (ng/ml) NF54): 0.37 ng/mL (≈ 1.24 nM); inhibition in vivo at 10 mg/kg [8, 12]: 98.7%; inhibition in vivo at 10 mg/kg ([8]; single 10 mg/kg sc, read-out: Activity (%) sc): 100%; inhibition in vivo at 100 mg/kg ([8]; single 100 mg/kg po, read-out: Activity (%) po): 100%; inhibition in vivo at 100 mg/kg ([8]; single 100 mg/kg sc, read-out: Activity (%) sc): 100%; Survival (days) sc ([8]; single 10 mg/kg sc): 9.0 days |
| O=C1CCC2(CC1)OOC1(O2)C2CC3CC(C2)CC1C3 (stereo not shown) [OZ05, Adamantane-2-spiro-3′-8′-oxo-1′,2′,4′-trioxaspiro[4.5]decane] | 88% | 1.5 ± 1.0^b | 90% | 1.5 mg/kg | 6.1 mg/kg | 0.6 mg/kg | 1.0 mg/kg | comparable | 5 days | showed activity | 3.5 mg/kg | 7.0 mg/kg | 2.3 mg/kg | 0% |  | 10.7 days | 30 days | more active | 100/100% | 100/100% | reduction in parasitaemia (Schistosoma mansoni; 100 mg/kg p.o. on days 7, 14, 21, 28, 35, 42, individual mice): 100% and 53%; IC50 (ng/ml) K1 ([6]; in vitro, K1 strain): 0.19 ng/mL (≈ 0.683 nM); pIC50 (NB2a cell line; NB2a cell line): 4.51; P. berghei (1 day) ED50 sc (P. berghei [3]; sc): 0.16 mg/kg; Percentage of dead worm [4]: 13.4 (31/232); Total dead worm [4]: 31; Mean total worm burden [4]: 40.2 ± 13.6; Tm dec. (° C.) [5]: 156.3 °C |
| fenozan [reference compound] |  |  |  | 1.9 mg/kg | 2.7 mg/kg | 1.1 mg/kg | 2.3 mg/kg |  |  |  | 1.7 mg/kg | 4.3 mg/kg | 3.2 mg/kg |  | 8.6 days |  |  |  |  |  | activity in the same assay (Schistosoma mansoni): inactive; IC50 (ng/ml) K1 ([6]; in vitro, K1 strain): 3.2 ng/mL; P. berghei (1 day) ED50 sc (P. berghei [3]; sc): 1.7 mg/kg; oral activity based on po ED50/ED90 values (P. berghei [3]; po, ranking among trioxolanes and controls): only slightly less orally active than OZ11; IC50 (ng/ml) NF54 ([7]; in vitro, NF54 strain): 3.0 ng/mL; Activity (%) po ([8]; single 10 mg/kg po): 99.95%; Activity (%) sc ([8]; single 10 mg/kg sc): 100%; Survival (days) sc ([8]; single 10 mg/kg sc): 13.4 days |
| CCOC(=O)CCC1CCCCC12OOC1(CCCCC1)O2 (stereo not shown) [OZ07, 1-[2-(Ethoxycarbonyl)ethyl]-7,14,15-trioxadispiro[5.1.5.2]pentadecane] |  |  |  |  |  |  |  |  |  |  |  |  |  |  |  |  |  | less active | 0/0% | 0/0% | IC50 [6, 9]: 66 ng/mL (≈ 211 nM); pIC50 (NB2a cell line): 4.57; IC50 [7, 11]: 49 ng/mL (≈ 157 nM) |
| C1C2CC3CC1CC(C2)C31OOC2(O1)C1CC3CC(C1)CC2C3 (stereo not shown) [OZ04, Adamantane-2-spiro-3′-1′,2′,4′-trioxolane-5′-spiro-2″-adamantane] | 7% | 11.6 ± 3.2^a | 7% |  |  |  |  |  |  |  |  |  |  | 0% |  | 5.3/5.3 days | 5.3/5.3 days | completely inactive | 0/0% | 0/0% | pIC50 (NB2a cell line; NB2a cell line): 4.36; Percentage of dead worm [4]: 0; Total dead worm [4]: 0; Mean total worm burden [4]: 37.6 ± 13.4; Tm dec. (° C.) [5]: 150.8 °C |
| C1CCC2(CC1)OOC1(O2)C2CC3CC(C2)CC1C3 (stereo not shown) [OZ03, Adamantane-2-spiro-3′-1′,2′,4′-trioxaspiro[4.5]decane] |  |  |  |  | 2.7 mg/kg |  | 1.1 mg/kg | comparable | 7 days |  |  |  | 2.2 mg/kg |  | 7.2 days | 14.3 days | 28 days | more active | 100/100% | 100/100% | ED50 (P. berghei [2]; po, read-out: P. berghei (4 day) ED50 po): 1 mg/kg; ED50 (P. berghei [2]; sc, read-out: P. berghei (4 day) ED50 sc): 0.6 mg/kg; IC50 ([6]; K1, read-out: IC50 (ng/ml) K1): 1.2 ng/mL (≈ 4.54 nM); pIC50 (NB2a cell line): 4.89; ED50 (P. berghei [3]; [10]): 5 mg/kg; ED90 (P. berghei [3]; po): 8.8 mg/kg; ED50 (P. berghei [3]; [13]): 0.7 mg/kg; Activity (%) po ([8]; single 10 mg/kg po): 94%; Activity (%) sc ([8]; single 10 mg/kg sc): 100%; Survival (days) sc ([8]; single 10 mg/kg sc): 11.9 days |
